# Values of other authors, collected in article PMC11068032 (Journal of medicinal chemistry, 2023).
# Conditions: cited from earlier work
structure (smiles),measurement,value
"COc1ccc(C(=O)Nc2ccc(NS(C)(=O)=O)c(OCc3cc(OC)ccc3OC)c2)cc1 [Compound I, N-(3-((2,5-dimethoxybenzyl)oxy)-4-(methylsulfonamido)phenyl)-4-methoxybenzamide]",AUC in brain tissue as share of the AUC in plasma,about 2%
same,half-life,about 1.5 h
